Non-standard residues stand in square brackets, D forms with d. Residues, ends and D or L forms follow the SMILES beside them. *: point of attachment. Bn = c1ccc(C*)cc1
How the values were obtained:
somatostatin = test: Somatostatin antagonist activity (blocking of exogenous somatostatin effects); format: in vivo, rats; settings: result in words
plasma GH levels = test: Peptide effects on NEMBUTAL-stimulated GH levels in anesthetized rats (sc bolus, jugular blood, RIA); format: in vivo, rat
Protocol: (§1) In this evaluation, the procedures described by W. A. Murphy et al., Endocrinology, 109:491-495 (1980), were employed.
In growth hormone (GH) experiments, male rats (Charles Rivers) were anesthetized with NEMBUTAL® (5 mg per 100 g/BW) which also served to maintain stimulated plasma GH levels. Exactly 30 minutes after the rats were anesthetized, 0.5 ml of saline or the test peptide in saline was administered as a sc bolus. A 1 ml blood sample was drawn from the jugular vein 15 minutes after the injection. For examining blocking effects of the analog on somatostatin, the cyclic peptide was given five minutes prior to somatostatin. GH levels were determined using NIADDKD rat GH RIA components.

insulin release = test: Basal hepatic portal insulin levels in fasted rats; format: in vivo, rat; settings: after treatment, result in words
From the text: as §1

glucagon release = test: Basal hepatic portal glucagon levels in fasted rats; format: in vivo, rat; settings: after treatment, result in words
From the text: as §1

SMILES	somatostatin antagonist activity (somatostatin)	GH (ng/ml) (plasma GH levels; first experiment, dose 2 μg/100 g body weight sc, saline 389 ± 60)	GH (plasma GH levels; first experiment, dose 10 μg/100 g body weight sc, saline 389 ± 60) [ng/mL]	GH (plasma GH levels; second experiment, dose 0.3 μg/100 g body weight sc, saline 648 ± 177) [ng/mL]	GH (plasma GH levels; second experiment, dose 0.3 μg/100 g body weight sc, saline 648 ± 177, listed as cyclo(Pro-Phe-D-Trp-Lys-Thr)) [ng/mL]	GH (plasma GH levels; second experiment, dose 0.6 μg/100 g body weight sc, saline 648 ± 177) [ng/mL]	GH (plasma GH levels; second experiment, dose 1.2 μg/100 g body weight sc, saline 648 ± 177) [ng/mL]	basal hepatic portal insulin levels (insulin release)	plasma growth hormone levels (plasma GH levels; NEMBUTAL-anesthetized and stimulated rats, after injection, result in words)	GH (plasma GH levels; third experiment, dose 0.2 μg/100 g body weight sc, saline 497 ± 80) [ng/mL]	GH (plasma GH levels; third experiment, dose 0.2 μg/100 g body weight sc, saline 497 ± 80, listed as cyclo[Pro-Phe-D-Trp-Lys-Thr(Bzl)]) [ng/mL]	GH (plasma GH levels; third experiment, dose 0.6 μg/100 g body weight sc, saline 497 ± 80) [ng/mL]	basal hepatic portal glucagon levels (glucagon release)	GH (plasma GH levels; first experiment, dose 0.4 μg/100 g body weight sc, blood 15 min after injection, saline 389 ± 60) [ng/mL]	GH (plasma GH levels; third experiment, dose 0.5 μg/100 g body weight sc, saline 497 ± 80) [ng/mL]
C[C@@H](O)[C@@H]1NC(=O)[C@H](CCCCN)NC(=O)[C@@H](Cc2c[nH]c3ccccc23)NC(=O)[C@H](Cc2ccccc2)NC(=O)[C@@H]2CCCN2C1=O [Cyclo(Pro--Phe--D-Trp--Lys--Thr), cyclo(L-prolyl-L-phenylalanyl-D-tryptophyl-L-lysyl-L-threonyl)] (cyclo(F[dW]KTP))	has somatostatin antagonist activity	730 + 110 ng/ml	459 ± 100	1265 ± 318	1265 ± 318	1072 ± 187	728 ± 143	–	–	–	–	–	–	–	–
C[C@@H](OCc1ccccc1)[C@@H]1NC(=O)[C@H](CCCCN)NC(=O)[C@@H](Cc2c[nH]c3ccccc23)NC(=O)[C@H](Cc2ccccc2)NC(=O)[C@@H]2CCCN2C1=O [Cyclo[Pro--Phe--D-Trp--Lys--Thr(Bzl)], cyclo(L-prolyl-L-phenylalanyl-D-tryptophyl-L-lysyl-O-benzyl-L-threonyl)] (cyclo(F[dW]KT(Bn)P))	very effective somatostatin antagonist	–	–	–	–	–	–	significantly increased	increased	1724 ± 393	1724 ± 383	812 ± 163	significantly increased	–	–
C[C@H](N)C(=O)NCC(=O)N[C@H]1CSSC[C@@H](C(=O)O)NC(=O)[C@H](CO)NC(=O)[C@H]([C@@H](C)O)NC(=O)[C@H](Cc2ccccc2)NC(=O)[C@H]([C@@H](C)O)NC(=O)[C@H](CCCCN)NC(=O)[C@H](Cc2c[nH]c3ccccc23)NC(=O)[C@H](Cc2ccccc2)NC(=O)[C@H](Cc2ccccc2)NC(=O)[C@H](CC(N)=O)NC(=O)[C@H](CCCCN)NC1=O [Somatostatin, somatostatin]	–	–	–	–	–	–	–	–	–	–	–	–	–	152 ± 51	173 ± 46

Reference: patent US4505897A, “Cyclic pentapeptides displaying somatostatin antagonism and method of treatment of mammals therewith” (The Administrators of the Tulane Educational Fund, priority 1983, dated 1985)
